Type in all cases: toxicity, cell-based
In one series the test system is HEK-293T. The series is described as follows: Incucyte cell viability with HEK293T. As to conditions: human, 10 µM, compound concentration 10 uM.
In another series the test system is Fibroblast. The series is described as follows: Incucyte cell viability with human fibroblast. As to conditions: 10 µM, compound concentration 10 uM.
The next series deals with U2OS. The series is described as follows: Incucyte cell viability with U2OS. As to conditions: human, 10 µM, compound concentration 10 uM.
The mark [1] stands for this setting: 0 h, replicate number 1, timepoint 0 hours.
Where [2] appears, read: 6 h, replicate number 1, timepoint 6 hours.
Where [3] appears, read: 12 h, replicate number 1, timepoint 12 hours.
Setting [4] is: 18 h, replicate number 1, timepoint 18 hours.
Setting [5] is: 24 h, replicate number 1, timepoint 24 hours.
Where [6] appears, read: 12 h, replicate number 2, timepoint 12 hours.
Setting [7] is: 24 h, replicate number 2, timepoint 24 hours.
Where [8] appears, read: 6 h, replicate number 2, timepoint 6 hours.
Setting [9] is: 0 h, replicate number 2, timepoint 0 hours.
The mark [10] stands for this setting: 18 h, replicate number 2, timepoint 18 hours.

This note sets out measurements from ChEMBL document CHEMBL4689842, “EUbOPEN Chemogenomics Library wave 1” (2021).
Note: filed as whole numbers so only -1 and 0 and 1 occur.

For the compound `Nc1nc(NCc2ccccc2)nc(-c2cccc(CO)c2)n1` [ZINC32547799], the “Growth Rate” value in the series with HEK-293T (setting [1]), in the series with HEK-293T (setting [2]), in the series with HEK-293T (setting [3]), in the series on HEK-293T (setting [4]), with HEK-293T (setting [5]) and in the series on Fibroblast (setting [1]) was 0 throughout. Further, the “Growth Rate” value with Fibroblast (setting [2]) was determined as 0; in the series with Fibroblast (setting [3]) it was 0; in the series with Fibroblast (setting [6]) it was 1; in the series on Fibroblast (setting [4]), 0; with Fibroblast (setting [5]), 0; in the series on Fibroblast (setting [7]) it was 1. Also, the “Growth Rate” value in the series on U2OS (setting [1]) stood at 0; in the series with U2OS (setting [8]), 0; in the series on U2OS (setting [3]), 1; in the series with U2OS (setting [4]), 1; with U2OS (setting [5]) it was 1.

With `Nc1nc(NCCc2ccc(O)cc2)nc2nc(-c3ccco3)nn12` [ZM-241385], the “Growth Rate” value in the series with HEK-293T (setting [1]) came to 1; in the series with HEK-293T (setting [9]), 0; in the series on HEK-293T (setting [2]), 0; in the series on HEK-293T (setting [3]), 0; in the series on HEK-293T (setting [4]) it was 0; in the series with HEK-293T (setting [5]) it was 0. In addition, the “Growth Rate” value was found to be 0 in the series with Fibroblast (setting [1]); 1 in the series with Fibroblast (setting [9]); 0 with Fibroblast (setting [8]); 1 in the series on Fibroblast (setting [3]); 0 with Fibroblast (setting [6]); 1 with Fibroblast (setting [4]). In addition, the “Growth Rate” value in the series with Fibroblast (setting [10]) is listed as 0; in the series with Fibroblast (setting [5]) it was 1; in the series with U2OS (setting [9]), 0; in the series with U2OS (setting [2]) it was 0; in the series on U2OS (setting [3]), 0; in the series with U2OS (setting [6]) it was 1. The “Growth Rate” value is reported as 0 with U2OS (setting [4]), 1 with U2OS (setting [10]), 0 in the series on U2OS (setting [5]) and 1 with U2OS (setting [7]).
